According to the NIST ThermoML archive (doi:10.1016/j.jct.2016.03.021):

Assay: wn = mass fraction of the nth substance listed
Settings: Liquid; for mass density: Vibrating tube method

CN(CCO)CCO [N-methyldiethanolamine] + O
mass density [kg/m3]
Settings	w1 = 0.1	w1 = 0.2002	w1 = 0.3	w1 = 0.4
333.15 K, 60000 kPa	–	–	–	1035
333.15 K, 70000 kPa	1017.9	1024.4	1031.5	1038.4
333.15 K, 80000 kPa	1021.6	1027.9	1034.9	1041.6
333.15 K, 90000 kPa	1025.1	1031.3	1038.1	1044.9
333.15 K, 100000 kPa	1028.5	1034.7	1041.6	1048.2
333.15 K, 110000 kPa	1031.9	1038	1044.6	1051.3
333.15 K, 120000 kPa	1035.4	1041.4	1047.9	1054.5
333.15 K, 130000 kPa	1038.7	1044.5	1051	1057.5
333.15 K, 140000 kPa	1042	1047.7	1054.2	1060.6
353.15 K, 100 kPa	978.6	985.3	992	998.1
353.15 K, 500 kPa	978.7	985.3	992	998.2
353.15 K, 1000 kPa	978.9	985.5	992.2	998.4
353.15 K, 2000 kPa	979.3	985.9	992.7	998.8
353.15 K, 5000 kPa	980.6	987.2	993.9	1000.1
353.15 K, 10000 kPa	982.8	989.4	996.1	1002.3
353.15 K, 15000 kPa	984.9	991.5	998.2	1004.4
353.15 K, 20000 kPa	987	993.5	1000.3	1006.5
353.15 K, 30000 kPa	991.2	997.6	1004.3	1010.5
353.15 K, 40000 kPa	995.2	1001.6	1008.1	1014.4
353.15 K, 50000 kPa	999.1	1005.5	1012	1018.2
353.15 K, 60000 kPa	1003.1	1009.3	1015.9	1022
353.15 K, 70000 kPa	1006.9	1012.9	1019.5	1025.6
353.15 K, 80000 kPa	1010.5	1016.6	1023	1029.1
353.15 K, 90000 kPa	1014	1020	1026.4	1032.6
353.15 K, 100000 kPa	1017.7	1023.6	1029.9	1036
353.15 K, 110000 kPa	1021.2	1027	1033.3	1039.3
353.15 K, 120000 kPa	1024.6	1030.4	1036.6	1042.5
353.15 K, 130000 kPa	1028	1033.6	1039.8	1045.8
353.15 K, 140000 kPa	1031.2	1036.8	1042.9	1048.9
373.15 K, 100 kPa	964.4	970.5	976.5	981.9
373.15 K, 500 kPa	964.6	970.7	976.6	982.1
373.15 K, 1000 kPa	964.9	970.9	976.9	982.4
373.15 K, 2000 kPa	965.3	971.4	977.4	982.8
373.15 K, 5000 kPa	966.7	972.8	978.7	984.2
373.15 K, 10000 kPa	969	975	981.1	986.5
373.15 K, 15000 kPa	971.2	977.2	983.4	988.8
373.15 K, 20000 kPa	973.5	979.5	985.6	991.1
373.15 K, 30000 kPa	977.9	983.9	989.8	995.5
373.15 K, 40000 kPa	982.1	988.2	994.1	999.8
373.15 K, 50000 kPa	986.2	992.1	998.1	1003.7
373.15 K, 60000 kPa	990.1	996.1	1002.1	1007.7
373.15 K, 70000 kPa	994.2	1000	1005.9	1011.6
373.15 K, 80000 kPa	998.1	1003.8	1009.8	1015.4
373.15 K, 90000 kPa	1001.8	1007.4	1013.3	1019
373.15 K, 100000 kPa	1005.3	1011.1	1017	1022.6
373.15 K, 110000 kPa	1009	1014.7	1020.5	1026.2
373.15 K, 120000 kPa	1012.6	1018.3	1024	1029.7
373.15 K, 130000 kPa	1016	1021.5	1027.4	1033
373.15 K, 140000 kPa	1019.4	1025	1030.7	1036.3
393.15 K, 100 kPa	948.6	954	959.6	964.2
393.15 K, 500 kPa	949	954.4	959.9	964.7
393.15 K, 1000 kPa	949.2	954.6	960.1	964.8
393.15 K, 2000 kPa	949.6	955.2	960.6	965.4
393.15 K, 5000 kPa	951.1	956.7	962.1	966.9
393.15 K, 10000 kPa	953.6	959.2	964.7	969.5
393.15 K, 15000 kPa	956	961.6	967.1	972
393.15 K, 20000 kPa	958.5	964	969.6	974.5
393.15 K, 30000 kPa	963	968.5	974.2	979.2
393.15 K, 40000 kPa	967.6	973.1	978.7	983.9
393.15 K, 50000 kPa	971.8	977.3	983	988.1
393.15 K, 60000 kPa	976.2	981.7	987.4	992.5
393.15 K, 70000 kPa	980.4	985.9	991.6	996.8
393.15 K, 80000 kPa	984.3	989.8	995.4	1000.8
393.15 K, 90000 kPa	988.3	993.7	999.4	1004.6
393.15 K, 100000 kPa	992.1	997.5	1003.1	1008.5
393.15 K, 110000 kPa	995.9	1001.4	1006.9	1012.3
393.15 K, 120000 kPa	999.6	1005	1010.6	1015.9
393.15 K, 130000 kPa	1003.1	1008.5	1014.1	1019.4
393.15 K, 140000 kPa	1006.7	1012	1017.6	1023

viscosity [mPa·s]
Settings	w1 = 0.1	w1 = 0.2	w1 = 0.2002	w1 = 0.3	w1 = 0.4
333.15 K, 80000 kPa, Falling or rolling sphere viscometry	0.661	–	0.942	1.4	2.134
333.15 K, 100000 kPa, Falling or rolling sphere viscometry	0.672	–	0.967	1.435	2.206
333.15 K, 120000 kPa, Falling or rolling sphere viscometry	0.68	–	0.982	1.468	2.28
353.15 K, 93 kPa, Concentric cylinders viscometry	–	0.6205	–	0.8505	1.186
353.15 K, 100 kPa, Falling or rolling sphere viscometry	–	0.617	0.617	0.854	1.181
353.15 K, 5000 kPa, Falling or rolling sphere viscometry	–	–	0.62	0.862	1.193
353.15 K, 10000 kPa, Falling or rolling sphere viscometry	–	–	0.625	0.869	1.204
353.15 K, 20000 kPa, Falling or rolling sphere viscometry	–	–	0.633	0.881	1.229
353.15 K, 30000 kPa, Falling or rolling sphere viscometry	–	–	0.64	0.894	1.253
353.15 K, 40000 kPa, Falling or rolling sphere viscometry	–	–	0.647	0.907	1.276
353.15 K, 60000 kPa, Falling or rolling sphere viscometry	–	–	0.661	0.932	1.322
353.15 K, 80000 kPa, Falling or rolling sphere viscometry	–	–	0.675	0.959	1.368
353.15 K, 100000 kPa, Falling or rolling sphere viscometry	–	–	0.691	0.997	1.419
353.15 K, 120000 kPa, Falling or rolling sphere viscometry	–	–	0.705	1.018	1.467
